Test system: 616215-338-R-J1-PDC tumor spheroids, viability
Assay: Anticancer human tumor 616215-338-R-J1-PDC patient-derived colon adenocarcinoma cell line growth inhibition [GQUAD]
Conditions: spheroids with HUVEC and MSC; for IC50: curve of first compound; for viability, T/C: stronger effect = lower value
Procedure, shortened: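 Tumor cells were grown as complex spheroids with HUVEC endothelial cells and mesenchymal stem cells as stroma. G-quadruplex stabilizers were combined with targeted agents over half-log dilutions from near the clinical Cmax, or from 10 microM.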
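Note: spheroids exposed to agents for 7 days before readout.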
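Throughout, for viability, T/C: percent viability relative to DMSO vehicle control wells taken as 100%.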

C=CCn1c(=O)c2cnc(Nc3ccc(N4CCN(C)CC4)cc3)nc2n1-c1cccc(C(C)(C)O)n1 + Cc1cnc(CNC(=O)c2c(=O)c3ccc(N4CCCN(C)CC4)nc3n3c2sc2ccccc23)cn1
IC50 (second compound 0.0316 µM): 255 nM
IC50 (second compound 0.1 µM): 131 nM
IC50 (second compound 0.316 µM): < 31.6 nM
IC50 (second compound 1 µM): < 31.6 nM
IC50 (second compound 3.16 µM): < 31.6 nM
IC50 (second compound 10 µM): < 31.6 nM
viability, T/C (second compound 0.0316 µM, first compound 0.0316 µM): 110%
viability, T/C (second compound 0.0316 µM, first compound 0.1 µM): 71.4%
viability, T/C (second compound 0.0316 µM, first compound 0.316 µM): 44.4%
viability, T/C (second compound 0.0316 µM, first compound 1 µM): 32.2%
viability, T/C (second compound 0.0316 µM, first compound 3.16 µM): 23.4%
viability, T/C (second compound 0.0316 µM, first compound 10 µM): 21.9%
viability, T/C (second compound 0.1 µM, first compound 0.0316 µM): 57.2%
viability, T/C (second compound 0.1 µM, first compound 0.1 µM): 55%
viability, T/C (second compound 0.1 µM, first compound 0.316 µM): 40.1%
viability, T/C (second compound 0.1 µM, first compound 1 µM): 38.3%
viability, T/C (second compound 0.1 µM, first compound 3.16 µM): 24.4%
viability, T/C (second compound 0.1 µM, first compound 10 µM): 17.8%
viability, T/C (second compound 0.316 µM, first compound 0.0316 µM): 44.1%
viability, T/C (second compound 0.316 µM, first compound 0.1 µM): 39.4%
viability, T/C (second compound 0.316 µM, first compound 0.316 µM): 30%
viability, T/C (second compound 0.316 µM, first compound 1 µM): 30.2%
viability, T/C (second compound 0.316 µM, first compound 3.16 µM): 27.7%
viability, T/C (second compound 0.316 µM, first compound 10 µM): 21%
viability, T/C (second compound 1 µM, first compound 0.0316 µM): 29.8%
viability, T/C (second compound 1 µM, first compound 0.1 µM): 30.8%
viability, T/C (second compound 1 µM, first compound 0.316 µM): 21%
viability, T/C (second compound 1 µM, first compound 1 µM): 21.9%
viability, T/C (second compound 1 µM, first compound 3.16 µM): 25.2%
viability, T/C (second compound 1 µM, first compound 10 µM): 17.3%
viability, T/C (second compound 3.16 µM, first compound 0.0316 µM): 31.2%
viability, T/C (second compound 3.16 µM, first compound 0.1 µM): 31.8%
viability, T/C (second compound 3.16 µM, first compound 0.316 µM): 19.8%
viability, T/C (second compound 3.16 µM, first compound 1 µM): 17.5%
viability, T/C (second compound 3.16 µM, first compound 3.16 µM): 12.2%
viability, T/C (second compound 3.16 µM, first compound 10 µM): 16.8%
viability, T/C (second compound 10 µM, first compound 0.0316 µM): 25.1%
viability, T/C (second compound 10 µM, first compound 0.1 µM): 26.2%
viability, T/C (second compound 10 µM, first compound 0.316 µM): 13.2%
viability, T/C (second compound 10 µM, first compound 1 µM): 15.5%
viability, T/C (second compound 10 µM, first compound 3.16 µM): 16.8%
viability, T/C (second compound 10 µM, first compound 10 µM): 15.5%

Reference: PubChem BioAssay AID2060493 (Molecular Pharmacology Branch, DTP, NCI, 2025)
